Tests used:
KAT2B = KAT2B (Homo sapiens, UniProt Q92831); assay: KAT2B degradation, Western Blot (Jess), NCI-H1048 cells; assay type: cell-based; set-up: degrader, Western blot (Jess); conditions: NCI-H1048 cells, KAT2B, 24 h, Western Blot, vs DMSO; read-out: KAT2B NCI-H1048 DC50
Method in brief: (§1)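 NCI-H1048 cells grown in HITES medium with 5% FBS were treated with compounds for 24 h at 37° C. Lysates were run by capillary Western (Jess) with KAT2A or KAT2B antibodies and chemiluminescent detection. DC50 derived from percent protein reduction versus DMSO control.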

KAT2A = KAT2A (Homo sapiens, UniProt Q92830); assay: KAT2A degradation, Western Blot (Jess), NCI-H1048 cells; assay type: cell-based; set-up: degrader, Western blot (Jess); conditions: NCI-H1048 cells, KAT2A, 24 h, Western Blot, vs DMSO; read-out: KAT2A NCI-H1048 DC50
Method in brief: as §1

KAT2A, sequence (Q92830 whole entry): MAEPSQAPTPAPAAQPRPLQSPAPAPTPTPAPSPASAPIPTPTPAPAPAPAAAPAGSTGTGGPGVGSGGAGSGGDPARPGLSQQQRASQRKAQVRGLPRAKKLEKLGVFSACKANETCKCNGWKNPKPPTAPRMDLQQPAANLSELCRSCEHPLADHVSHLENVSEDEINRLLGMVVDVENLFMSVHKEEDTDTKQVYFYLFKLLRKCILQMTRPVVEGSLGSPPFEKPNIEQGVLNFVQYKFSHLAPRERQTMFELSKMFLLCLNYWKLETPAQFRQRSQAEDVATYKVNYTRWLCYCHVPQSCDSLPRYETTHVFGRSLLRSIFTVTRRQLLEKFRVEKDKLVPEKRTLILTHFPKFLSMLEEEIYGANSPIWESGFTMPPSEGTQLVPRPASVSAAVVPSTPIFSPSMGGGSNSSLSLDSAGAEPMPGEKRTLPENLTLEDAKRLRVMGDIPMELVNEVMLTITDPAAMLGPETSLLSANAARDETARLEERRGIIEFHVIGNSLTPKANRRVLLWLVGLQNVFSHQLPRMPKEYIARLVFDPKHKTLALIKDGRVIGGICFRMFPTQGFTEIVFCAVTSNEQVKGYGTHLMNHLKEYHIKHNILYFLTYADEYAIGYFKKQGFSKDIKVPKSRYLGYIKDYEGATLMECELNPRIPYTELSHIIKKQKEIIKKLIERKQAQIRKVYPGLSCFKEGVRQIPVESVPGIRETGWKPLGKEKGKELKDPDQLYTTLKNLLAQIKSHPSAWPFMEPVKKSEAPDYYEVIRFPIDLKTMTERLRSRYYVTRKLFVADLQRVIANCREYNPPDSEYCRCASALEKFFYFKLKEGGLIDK
KAT2B, sequence (Q92831 whole entry): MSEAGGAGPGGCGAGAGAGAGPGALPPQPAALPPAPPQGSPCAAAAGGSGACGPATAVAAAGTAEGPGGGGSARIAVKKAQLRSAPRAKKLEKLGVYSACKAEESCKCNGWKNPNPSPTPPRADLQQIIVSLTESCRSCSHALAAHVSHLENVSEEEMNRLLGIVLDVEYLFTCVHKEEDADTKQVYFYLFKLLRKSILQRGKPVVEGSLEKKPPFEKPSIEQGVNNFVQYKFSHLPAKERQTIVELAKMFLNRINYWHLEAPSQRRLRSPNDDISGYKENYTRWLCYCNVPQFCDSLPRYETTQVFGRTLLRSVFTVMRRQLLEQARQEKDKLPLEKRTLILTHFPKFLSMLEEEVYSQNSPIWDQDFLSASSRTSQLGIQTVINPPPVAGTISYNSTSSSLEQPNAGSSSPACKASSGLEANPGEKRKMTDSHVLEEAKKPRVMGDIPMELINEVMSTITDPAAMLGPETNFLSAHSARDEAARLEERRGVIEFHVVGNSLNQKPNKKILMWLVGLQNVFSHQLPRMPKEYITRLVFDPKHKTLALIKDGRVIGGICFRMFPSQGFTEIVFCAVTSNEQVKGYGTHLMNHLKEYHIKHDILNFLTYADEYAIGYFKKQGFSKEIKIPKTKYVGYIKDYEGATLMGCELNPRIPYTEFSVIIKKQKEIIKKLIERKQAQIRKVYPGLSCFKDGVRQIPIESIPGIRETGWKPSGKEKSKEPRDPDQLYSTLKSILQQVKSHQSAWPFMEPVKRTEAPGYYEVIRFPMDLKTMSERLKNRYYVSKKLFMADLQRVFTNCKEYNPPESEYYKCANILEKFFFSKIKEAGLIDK

| DC50 (KAT2B) | DC50 (KAT2A) | Compound |
| --- | --- | --- |
| > 30 nM | < 1 nM | CN1C[C@H](Nc2cnn(C)c(=O)c2Br)C[C@H](c2ccc(C(=O)N3CCC(c4ccc5c(C6CCC(=O)NC6=O)nccc5c4)CC3)cc2)C1 (some centres unmarked) [Compound 377] |
| < 1 nM | < 1 nM | CN1C[C@H](Nc2cnn(C)c(=O)c2Br)C[C@H](c2ccc(C(=O)N3CCC4(CC3)CCN(c3ccc5c(c3)C(=O)N(C3CCC(=O)NC3=O)C5=O)CC4)cc2)C1 (some centres unmarked) [Compound 300] |
| < 1 nM | < 1 nM | CN1C[C@H](Nc2cnn(C)c(=O)c2Cl)C[C@H](c2ccc(C(=O)N3CCC4(CC3)CCN(c3ccc5c(c3)C(=O)N(C3CCC(=O)NC3=O)C5=O)CC4)cc2)C1 (some centres unmarked) [Compound 301] |
| > 30 nM | 1 to 30 nM | CN1C[C@H](Nc2cnn(C)c(=O)c2Br)C[C@H](c2ccc(CN3CC(c4ccc(C5CCC(=O)NC5=O)cc4)C3)cc2)C1 (some centres unmarked) [Compound 195] |
| < 1 nM | < 1 nM | Cc1cc(C2CCC(=O)NC2=O)cnc1N1CCC2(CCN(C(=O)c3ccc([C@H]4C[C@@H](Nc5cnn(C)c(=O)c5Br)CN(C)C4)cc3)CC2)CC1 (some centres unmarked) [Compound 274] |
| < 1 nM | < 1 nM | CCn1ncc(N[C@@H]2C[C@H](c3ccc(C(=O)N4CCC5(CC4)CCN(c4ccc(C6CCC(=O)NC6=O)c(C)c4)CC5)cc3)CN(C)C2)c(Br)c1=O (some centres unmarked) [Compound 216] |
| > 30 nM | 1 to 30 nM | CN1C[C@H](Nc2cnn(C)c(=O)c2Cl)C[C@H](c2ccc(CN3CCN(c4cc(C5CCC(=O)NC5=O)ccn4)CC3)cc2)C1 (some centres unmarked) [Compound 356] |
| 1 to 30 nM | < 1 nM | Cc1cc(N2CC(N3CCN(C(=O)c4ccc([C@H]5C[C@@H](Nc6cnn(C)c(=O)c6Br)CN(C)C5)cc4)CC3)C2)ccc1C1CCC(=O)NC1=O (some centres unmarked) [Compound 307] |
| < 1 nM | > 30 nM | CN1C[C@H](Nc2cnn(C)c(=O)c2Br)C[C@H](c2ccc(CN3CCC(c4ccc5c(c4)C(=O)N(C4CCC(=O)NC4=O)C5=O)C(F)(F)C3)cc2)C1 (some centres unmarked) [Compound 391] |
| > 30 nM | > 30 nM | CN1C[C@H](Nc2cnn(C)c(=O)c2Br)C[C@H](c2ccc(C(=O)N3CCN(Cc4cnn(C5CCC(=O)NC5=O)c4)CC3)cc2)C1 (some centres unmarked) [Compound 205] |
| < 1 nM | < 1 nM | Cc1cc(N2CCC3(CCN(C(=O)c4ccc([C@H]5C[C@@H](Nc6cnn(C)c(=O)c6Br)CN(C)C5)cc4)CC3)CC2)ncc1C1CCC(=O)NC1=O (some centres unmarked) [Compound 273] |
| < 1 nM | < 1 nM | CN1C[C@H](Nc2cnn(C)c(=O)c2Cl)C[C@H](c2ccc(C(=O)N3CCC4(CCC(c5ccc(C6CCC(=O)NC6=O)cc5)CC4)CC3)cc2)C1 (some centres unmarked) [Compound 324] |
| < 1 nM | < 1 nM | Cc1cc(N2CCC3(CCN(C(=O)c4ccc([C@H]5C[C@@H](Nc6cnn(C)c(=O)c6Cl)CN(C)C5)cc4)CC3)CC2)cc(C)c1C1CCC(=O)NC1=O (some centres unmarked) [Compound 283] |
| > 30 nM | 1 to 30 nM | Cc1c(N[C@@H]2C[C@H](c3ccc(CN4CCN(c5cc(C6CCC(=O)NC6=O)ccn5)CC4)cc3)CN(C)C2)cnn(C)c1=O (some centres unmarked) [Compound 357] |
| < 1 nM | < 1 nM | Cc1cc(N2CCC3(CCN(Cc4ccc([C@H]5C[C@@H](Nc6cnn(C)c(=O)c6Cl)CN(C)C5)cc4)CC3)CC2)ccc1C1CCC(=O)NC1=O (some centres unmarked) [Compound 338] |
| 1 to 30 nM | < 1 nM | CN1C[C@H](Nc2cnn(C)c(=O)c2Br)C[C@H](c2ccc(CN3CCN(c4cc5c(cc4F)C(=O)N(C4CCC(=O)NC4=O)C5=O)CC3)cc2)C1 (some centres unmarked) [Compound 304] |
| > 30 nM | 1 to 30 nM | CN1C[C@H](Nc2cnn(C)c(=O)c2Br)C[C@H](c2ccc(C(=O)N3CC(c4cccc(C5CCC(=O)NC5=O)c4)C3)cc2)C1 (some centres unmarked) [Compound 191] |
| 1 to 30 nM | < 1 nM | Cc1c(N[C@@H]2C[C@H](c3ccc(C(=O)N4CCC5(CC4)CCN(c4ccc6c(C7CCC(=O)NC7=O)nccc6c4)CC5)cc3)CN(C)C2)cnn(C)c1=O (some centres unmarked) [Compound 295] |
| > 30 nM | 1 to 30 nM | Cc1cc(N2CCC3(CCN(C(=O)c4ccc([C@H]5C[C@@H](Nc6cnn(C)c(=O)c6C)CN(C)C5)cc4)CC3)CC2)c(F)cc1C1CCC(=O)NC1=O (some centres unmarked) [Compound 244] |

Reference: patent US20260306640A1, “TECHNOLOGIES TARGETING CELL STATES” (Auron Therapeutics, Inc., priority 2023, published 2026)
